Data taken from the NIST ThermoML archive (doi:10.1016/j.fluid.2017.12.026).
Numbers after ± are expanded uncertainties.

Conditions: Coaxial cylinder method

CCCCC [pentane]
Conditions | thermal conductivity [W/m/K]
309.04 K, 260 kPa, Liquid | 0.109 ± 0.004
309.04 K, 261 kPa, Liquid | 0.1092 ± 0.004
309.04 K, 1000 kPa, Liquid | 0.1095 ± 0.004
309.04 K, 2000 kPa, Liquid | 0.1101 ± 0.004
309.04 K, 3012 kPa, Liquid | 0.1108 ± 0.004
309.04 K, 4151 kPa, Liquid | 0.1118 ± 0.0041
309.04 K, 4297 kPa, Liquid | 0.1117 ± 0.0041
309.04 K, 5604 kPa, Liquid | 0.1123 ± 0.0041
309.04 K, 6001 kPa, Liquid | 0.1125 ± 0.0041
309.04 K, 7000 kPa, Liquid | 0.113 ± 0.0041
309.04 K, 8108 kPa, Liquid | 0.1137 ± 0.0041
309.04 K, 9011 kPa, Liquid | 0.1142 ± 0.0042
309.04 K, 10008 kPa, Liquid | 0.1154 ± 0.0042
309.04 K, 11054 kPa, Liquid | 0.1161 ± 0.0042
309.04 K, 12000 kPa, Liquid | 0.1167 ± 0.0042
309.04 K, 12504 kPa, Liquid | 0.1168 ± 0.0042
309.04 K, 13000 kPa, Liquid | 0.1171 ± 0.0042
309.04 K, 14742 kPa, Liquid | 0.1181 ± 0.0043
309.04 K, 19800 kPa, Liquid | 0.1207 ± 0.0044
309.04 K, 19908 kPa, Liquid | 0.1205 ± 0.0044
309.04 K, 20004 kPa, Liquid | 0.1206 ± 0.0044
309.04 K, 24000 kPa, Liquid | 0.1231 ± 0.0044
309.04 K, 25000 kPa, Liquid | 0.1233 ± 0.0044
309.04 K, 28000 kPa, Liquid | 0.1241 ± 0.0045
309.04 K, 29100 kPa, Liquid | 0.1253 ± 0.0045
309.04 K, 29300 kPa, Liquid | 0.1256 ± 0.0045
309.04 K, 34000 kPa, Liquid | 0.1281 ± 0.0046
309.04 K, 35000 kPa, Liquid | 0.1286 ± 0.0046
309.04 K, 38000 kPa, Liquid | 0.1298 ± 0.0047
309.04 K, 39100 kPa, Liquid | 0.1299 ± 0.0047
309.04 K, 39176 kPa, Liquid | 0.13 ± 0.0047
309.04 K, 39350 kPa, Liquid | 0.1304 ± 0.0047
309.04 K, 49940 kPa, Liquid | 0.1352 ± 0.0048
309.04 K, 50230 kPa, Liquid | 0.1353 ± 0.0048
309.04 K, 50800 kPa, Liquid | 0.1352 ± 0.0048
315.55 K, 100 kPa, Gas | 0.01635 ± 0.00062
331.2 K, 2097 kPa, Liquid | 0.1035 ± 0.0038
331.2 K, 3000 kPa, Liquid | 0.1041 ± 0.0038
331.2 K, 3500 kPa, Liquid | 0.1045 ± 0.0038
331.2 K, 4000 kPa, Liquid | 0.1046 ± 0.0038
331.2 K, 5000 kPa, Liquid | 0.1053 ± 0.0039
331.2 K, 6000 kPa, Liquid | 0.1061 ± 0.0039
331.2 K, 7000 kPa, Liquid | 0.1068 ± 0.0039
331.2 K, 8000 kPa, Liquid | 0.1069 ± 0.0039
331.2 K, 9000 kPa, Liquid | 0.1072 ± 0.0039
331.2 K, 9500 kPa, Liquid | 0.1077 ± 0.0039
331.2 K, 10000 kPa, Liquid | 0.1078 ± 0.0039
331.2 K, 11000 kPa, Liquid | 0.1085 ± 0.004
331.2 K, 12000 kPa, Liquid | 0.109 ± 0.004
331.2 K, 13000 kPa, Liquid | 0.1094 ± 0.004
331.2 K, 15000 kPa, Liquid | 0.1109 ± 0.004
331.2 K, 16000 kPa, Liquid | 0.1115 ± 0.0041
331.2 K, 17000 kPa, Liquid | 0.1122 ± 0.0041
331.2 K, 18000 kPa, Liquid | 0.1126 ± 0.0041
331.2 K, 19000 kPa, Liquid | 0.1131 ± 0.0041
331.2 K, 20000 kPa, Liquid | 0.1139 ± 0.0041
331.2 K, 21000 kPa, Liquid | 0.1141 ± 0.0041
331.2 K, 22000 kPa, Liquid | 0.1148 ± 0.0042
331.2 K, 24000 kPa, Liquid | 0.1158 ± 0.0042
331.2 K, 25482 kPa, Liquid | 0.1167 ± 0.0042
331.2 K, 26404 kPa, Liquid | 0.1172 ± 0.0043
331.2 K, 27000 kPa, Liquid | 0.1176 ± 0.0043
331.2 K, 30000 kPa, Liquid | 0.1188 ± 0.0043
331.2 K, 31040 kPa, Liquid | 0.1193 ± 0.0043
331.2 K, 31081 kPa, Liquid | 0.1193 ± 0.0043
331.2 K, 32500 kPa, Liquid | 0.1202 ± 0.0043
331.2 K, 33500 kPa, Liquid | 0.1209 ± 0.0044
331.2 K, 34477 kPa, Liquid | 0.1211 ± 0.0044
331.2 K, 35500 kPa, Liquid | 0.1216 ± 0.0044
331.2 K, 36500 kPa, Liquid | 0.1224 ± 0.0044
331.2 K, 37885 kPa, Liquid | 0.1229 ± 0.0044
331.2 K, 38500 kPa, Liquid | 0.1231 ± 0.0044
331.2 K, 39000 kPa, Liquid | 0.1237 ± 0.0045
331.2 K, 39500 kPa, Liquid | 0.1239 ± 0.0045
331.2 K, 40000 kPa, Liquid | 0.1241 ± 0.0045
331.2 K, 41000 kPa, Liquid | 0.1242 ± 0.0045
331.2 K, 42000 kPa, Liquid | 0.1246 ± 0.0045
331.2 K, 43500 kPa, Liquid | 0.1255 ± 0.0045
331.2 K, 44500 kPa, Liquid | 0.1261 ± 0.0045
331.2 K, 45500 kPa, Liquid | 0.1266 ± 0.0046
331.2 K, 47000 kPa, Liquid | 0.1272 ± 0.0046
331.2 K, 48000 kPa, Liquid | 0.1273 ± 0.0046
